This assay addresses human RIP1 kinase domain (2-375) (Homo sapiens (Human), UniProt Q13546). The assay is described as follows: RIP1 kinase inhibition assay (Transcreener ADP biochemical enzyme assay). Particulars: Ki app (Morrison tight-binding fit); 50 nM enzyme, 50 uM ATP, 2 hours incubation, fluorescence polarization. As for the experimental part:
RIP1 Kinase Inhibition Assays (Biochemical Assay):
The compounds of the present invention were tested for their capacity to inhibit RIP K activity as described below.
Enzyme assay: The ability of the receptor interacting protein kinase (RIPK1) to catalyze the hydrolysis of adenosine-5′-triphosphate (ATP) is monitored using the Transcreener ADP (adenosine-5′-diphosphate) assay (BellBrook Labs). Purified human RIP1 kinase domain (2-375) (50 nM) derived from a baculovirus-infected insect cell expression system is incubated with test compounds for 2 hours in 50 mM Hepes buffer (pH 7.5) containing 30 mM MgCl2, 1 mM dithiothreitol, 50 uM ATP, 0.002% Brij-35, and 0.5% dimethyl sulfoxide (DMSO). Reactions are quenched by the addition of 1× Bell Brooks Stop buffer B (20 mM Hepes (ph7.5), 40 mM ethylenediaminetetraacetic acid and 0.02% Brij-35) containing an additional 12 mM EDTA and 55 ug/mL ADP2 antibody and 4 nM ADP-AlexaFluor® 633 tracer. The tracer bound to the antibody is displaced by the ADP generated during the RIP1K reaction, which causes a decrease in fluorescence polarization that is measured by laser excitation at 633 nm with a FP microplate reader M1000. Fractional activity was plotted against test article concentration. Using Genedata Screener software (Genedata; Basel, Switzerland), the data were fit to the tight-binding apparent inhibition constant (Ki^app) Morrison equation [Williams, J. W. and Morrison, J. F. (1979) The kinetics of reversible tight-binding inhibition. Methods Enzymol 63: 437-67]. The following equation was used to calculate fractional activity and Ki^app:
[formula] where [E]T and [I]T are the total concentrations of active enzyme and test article, respectively.

Molecules are shown by their SMILES.

human RIP1 kinase domain (2-375), sequence (Q13546 2-375): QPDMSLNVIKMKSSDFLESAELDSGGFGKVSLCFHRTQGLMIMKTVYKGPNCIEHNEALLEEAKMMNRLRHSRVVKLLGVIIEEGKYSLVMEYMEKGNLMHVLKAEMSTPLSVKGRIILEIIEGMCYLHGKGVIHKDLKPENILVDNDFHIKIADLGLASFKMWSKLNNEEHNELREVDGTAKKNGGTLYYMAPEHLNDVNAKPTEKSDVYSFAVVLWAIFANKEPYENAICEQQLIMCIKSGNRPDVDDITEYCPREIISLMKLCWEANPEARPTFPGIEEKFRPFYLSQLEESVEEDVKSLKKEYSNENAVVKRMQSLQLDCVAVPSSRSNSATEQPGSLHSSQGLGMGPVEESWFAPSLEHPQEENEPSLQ

`O=C(c1nc2n(n1)C(c1ccccc1)CC2)N1CCC1` (racemic) [Example 26, azetidin-1-yl-(5-phenyl-6,7-dihydro-5H-pyrrolo[1,2-b][1.2.4]triazol-2-yl)methanone]: the Ki was found to be 530 nM. `O=C(c1nc2n(n1)[C@H](c1ccccc1)C[C@@H]2F)N(CC(F)(F)F)C1COC1` (racemic) [Example 57, rac-(5S,7S)-7-fluoro-N-(oxetan-3-yl)-5-phenyl-N-(2,2,2-trifluoroethyl)-6,7-dihydro-5H-pyrrolo[1,2-b][1,2,4]triazole-2-carboxamide] yielded a Ki of 510 nM.

`CC(F)(F)C1CCc2nc(C(=O)N3CC(F)(F)C3)nn21` (racemic) [Example 8, (3,3-difluoroazetidin-1-yl)-[5-(1,1-difluoroethyl)-6,7-dihydro-5H-pyrrolo[1,2-b][1,2,4]triazol-2-yl]methanone] gave a Ki of 8690 nM. In the case of `CCC(F)(F)C1CCc2nc(C(=O)N3CC(F)(F)C3)nn21` (racemic) [Example 40, (3,3-difluoroazetidin-1-yl)-[5-(1,1-difluoropropyl)-6,7-dihydro-5H-pyrrolo[1,2-b][1,2,4]triazol-2-yl]methanone] it was 920 nM; in that of `O=C(c1nc2n(n1)[C@@H](c1ccccc1)CC2(F)F)N1CC(F)(F)C1` (single isomer, unassigned) [Example 1b], over 10000 nM. Molecule `O=C(c1nc2n(n1)C(c1ccccc1)CC2(F)F)N1CC(F)(F)C1` (racemic) [Example 1, (3,3-difluoroazetidin-1-yl)-(7,7-difluoro-5-phenyl-5,6-dihydropyrrolo[1,2-b][1,2,4]triazol-2-yl)methanone] gave a Ki of 57 nM. In the case of `O=C(c1nc2n(n1)[C@@H](c1ccccc1)C[C@@H]2F)N1CC(F)(F)C1` (racemic) [Example 2, (3,3-difluoroazetidin-1-yl)-[rac-(5R,7S)-7-fluoro-5-phenyl-6,7-dihydro-5H-pyrrolo[1,2-b][1,2,4]triazol-2-yl]methanone] it was 478 nM; in that of `O=C(c1nc2n(n1)[C@H](c1ccccc1)C[C@H]2F)N1CC(F)C1` (racemic) [Example 35], 1300 nM; in that of `O=C(c1nc2n(n1)[C@H](c1ccccc1)C[C@@H]2F)N1CCn2nccc2C1` (stereo in doubt) [Example 69, 6,7-dihydro-4H-pyrazolo[1,5-a]pyrazin-5-yl-[rac-(5S,7S)-7-fluoro-5-phenyl-6,7-dihydro-5H-pyrrolo[1,2-b][1,2,4]triazol-2-yl]methanone], 52 nM. `COCCN(CC(F)F)C(=O)c1nc2n(n1)[C@@H](c1ccccc1)C[C@H]2F` (racemic) [Example 56, rac-(5R,7R)-N-(2,2-difluoroethyl)-7-fluoro-N-(2-methoxyethyl)-5-phenyl-6,7-dihydro-5H-pyrrolo[1,2-b[[1,2,4]triazole-2-carboxamide] registered a Ki of 520 nM. In the case of `CCN(CC)C(=O)c1nc2n(n1)CCOC2c1ccccc1F` (racemic) [Example 44, N,N-diethyl-8-(2-fluorophenyl)-6,8-dihydro-5H-[1,2,4]triazolo[5,1-c][1,4]oxazine-2-carboxamide] it was 4800 nM. Take `O=C(c1nc2n(n1)C(c1ccccc1F)CC2)N1CCCC1` (racemic) [Example 34]: the Ki was found to be 3400 nM. For the molecule `CN(C)C(=O)c1nc2n(n1)C(c1ccccc1F)CC2` (racemic) [Example 33], the Ki worked out at 1400 nM. The molecule `O=C(c1nc2n(n1)[C@H](c1ccccc1)C[C@@H]2F)N1CCc2cccc(F)c2C1` (racemic) [Example 95, (8-fluoro-3,4-dihydro-1H-isoquinolin-2-yl)-[rac-(5S,7S)-7-fluoro-5-phenyl-6,7-dihydro-5H-pyrrolo[1,2-b][1,2,4]triazol-2-yl]methanone] showed a Ki of 18 nM. In the case of `O=C(c1nc2n(n1)[C@H](c1ccccc1)C[C@@H]2F)N(C1CC1)C1CC1` (racemic) [Example 61, rac-(5S,7S)-N,N-dicyclopropyl-7-fluoro-5-phenyl-6,7-dihydro-5H-pyrrolo[1,2-b] [1,2,4]triazole-2-carboxamide] it was 3200 nM; in that of `O=C(c1nc2n(n1)[C@H](c1ccccc1)C[C@@H]2F)N1CCc2ccccc2C1` (stereo in doubt) [Example 99, 3,4-dihydro-1H-isoquinolin-2-yl-[rac-(5S,7S)-7-fluoro-5-phenyl-6,7-dihydro-5H-pyrrolo[1,2-b][1,2,4]triazol-2-yl]methanone], 13 nM; in that of `Cc1cc2n(n1)CCN(C(=O)c1nc3n(n1)[C@H](c1ccccc1)C[C@@H]3F)C2` (racemic) [Example 63, (2-methyl-6,7-dihydro-4H-pyrazolo[1,5-a]pyrazin-5-yl)-[rac-(5S,7S)-7-fluoro-5-phenyl-6,7-dihydro-5H-pyrrolo[1,2-b][1,2,4]triazol-2-yl]methanone], 2300 nM.

Regarding `O=C(c1cc2n(n1)CC[C@@H]2c1ccccc1)N1CC(F)(F)C1` [Example 9, (3,3-difluoroazetidin-1-yl)-[(4R)-4-phenyl-5,6-dihydro-4H-pyrrolo[1,2-b]pyrazol-2-yl]methanone], the Ki was 2660 nM.

With `O=C(c1nc2n(n1)C(c1ccccc1)CC2)N1CC(F)(F)C1` (racemic) [Example 16, (3,3-difluoroazetidin-1-yl)-(5-phenyl-6,7-dihydro-H-pyrrolo[1,2-b][1,2,4]triazol-2-yl)methanone], the Ki worked out at 105 nM.

In turn, `CC1c2ccccc2CCN1C(=O)c1nc2n(n1)[C@H](c1ccccc1)C[C@@H]2F` (mixture of isomers) [Example 97, (1-methyl-3,4-dihydro-1H-isoquinolin-2-yl)-[rac-(5S,7S)-7-fluoro-5-phenyl-6,7-dihydro-5H-pyrrolo[1,2-b][1,2,4]triazol-2-yl]methanone] yielded a Ki of 58 nM.

Molecule `O=C(c1nc2n(n1)C(c1ccccc1)CC2)N1CCCC1` (racemic) [Example 30, (5-phenyl-6,7-dihydro-5H-pyrrolo[1,2-b][1,2,4]triazol-2-yl)-pyrrolidin-1-yl-methanone] showed a Ki of 6400 nM.

Consider `O=C(c1nc2n(n1)[C@@H](c1ccccc1)CC2(F)F)N1CC(F)(F)C1` (single isomer, unassigned) [Example 1a], for which the Ki stood at 8 nM.

The molecule `CN(C)C(=O)c1nc2n(n1)C(c1ccccc1)CC2` (racemic) [Example 27, N,N-dimethyl-5-phenyl-6,7-dihydro-5H-pyrrolo[1,2-b][1,2,4]triazole-2-carboxamide] gave a Ki of 2200 nM. In the case of `CN(CC(F)F)C(=O)c1nc2n(n1)[C@H](c1ccccc1)C[C@@H]2F` (racemic) [Example 91, rac-(5S,7S)-N-(2,2-difluoroethyl)-7-fluoro-N-methyl-5-phenyl-6,7-dihydro-5H-pyrrolo[1,2-b] [1,2,4]triazole-2-carboxamide] it was 42 nM; in that of `O=C(c1nc2n(n1)[C@@H](c1ccccc1)CC2)N1CC(F)(F)C1` (stereo in doubt) [Example 32, (3,3-difluoroazetidin-1-yl)-[rac-(5R)-5-phenyl-6,7-dihydro-5H-pyrrolo[1,2-b][1,2,4]triazol-2-yl]methanone], 66 nM; in that of `CC1CN(C(=O)c2nc3n(n2)[C@H](c2ccccc2)C[C@@H]3F)Cc2ccnn21` (mixture of isomers) [Example 62, (7-methyl-6,7-dihydro-4H-pyrazolo[1,5-a]pyrazin-5-yl)-[rac-(5S,7S)-7-fluoro-5-phenyl-6,7-dihydro-5H-pyrrolo[1,2-b][1,2,4]triazol-2-yl]methanone], 130 nM. In the case of `O=C(c1nc2n(n1)[C@@H](c1ccccc1)C[C@H]2F)N1CCC[C@@H]1C(F)F` (single isomer, unassigned) [Example 65] it was 36 nM; in that of `O=C(c1nc2n(n1)[C@H](c1ccccc1)C[C@@H]2F)N1CCc2cccnc2C1` (stereo in doubt) [Example 74, 6,8-dihydro-5H-1,7-naphthyridin-7-yl-[rac-(5S, 7S)-7-fluoro-5-phenyl-6,7-dihydro-5H-pyrrolo [1,2-b][1,2,4]triazol-2-yl]methanone], 24 nM. To `O=C(c1nc2n(n1)C(c1ccccc1)CC2)N1CCCCC1` (racemic) [Example 29, (5-phenyl-6,7-dihydro-5H-pyrrolo[1,2-b][1,2,4]triazol-2-yl)-(1-piperidyl)methanone] belongs 5400 nM. In the case of `O=C(c1nc2n(n1)[C@@H](c1ccccc1)C[C@H]2F)N1CC(F)C1` (racemic) [Example 39], the Ki is 32 nM. Regarding `O=C(c1nc2n(n1)[C@@H](c1ccccc1)C[C@H]2F)N1CCc2ccccc2C1` (stereo in doubt) [Example 76], the Ki worked out at 31 nM. Turning to `O=C(c1nc2n(n1)[C@H](c1ccccc1)C[C@@H]2F)N(CC(F)(F)F)C1CC1` (racemic) [Example 59, rac-(5S,7S)-N-cyclopropyl-7-fluoro-5-phenyl-N-(2,2,2-trifluoroethyl)-6,7-dihydro-5H-pyrrolo[1,2-b][1,2,4|]triazole-2-carboxamide], the Ki was 2200 nM. As to `O=C(c1cc2n(n1)CCOC2c1ccccc1)N1CC(F)(F)C1` (racemic) [Example 13, (3,3-difluoroazetidin-1-yl)-(4-phenyl-6,7-dihydro-4H-pyrazolo[5,1-c][1,4]oxazin-2-yl)methanone], the Ki amounted to 1140 nM.

The values above are taken from patent US11071721B2, “Bicyclic amide compounds and methods of use thereof” (Genentech, Inc., priority 2016, dated 2021).
